This is an account of results in PubChem BioAssay AID248 (DTP/NCI, 2004).

Toxic doses and inconclusive results are not listed.

This assay deals with L1210 leukemia ip in BDF1 mice, survival T/C. The experiment in a line: NCI In Vivo Anticancer Drug Screen. Data for tumor model L1210 Leukemia (intraperitoneal) in B6D2F1 (BDF1) mice. As to conditions: endpoint: mean survival time, higher = longer survival. A digest of the protocol:
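Ratio derived from survival: compound-dosed mice over vehicle-dosed mice, all bearing a transplantable tumor.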

Where [1] appears, read: dose: 100.0 mg/kg/injection, schedule: Q04DX003 (ip), vehicle: saline with Tween-80.
Where [2] appears, read: dose: 200.0 mg/kg/injection, schedule: Q04DX003 (ip), vehicle: saline with Tween-80.
Where [3] appears, read: dose: 400.0 mg/kg/injection, schedule: Q04DX003 (ip), vehicle: saline with Tween-80.

As to `COc1ccc2c(c1OC)C1(CCN(C)C#N)CCCCC1CC2` (stereo not given), the T/C by setting is: (dose: 100.0 mg/kg/injection, schedule: Q01DX001 (ip), vehicle: Klucel (hydroxypropylcellulose) (HPC)) 95 % of control; (dose: 200.0 mg/kg/injection, schedule: Q01DX001 (ip), vehicle: Klucel (hydroxypropylcellulose) (HPC)) 95 % of control; (dose: 400.0 mg/kg/injection, schedule: Q01DX001 (ip), vehicle: Klucel (hydroxypropylcellulose) (HPC)) 86 % of control.
As for `O=c1[nH]cnc2c1ncn2Cc1cccc2ccccc12`, the T/C is, setting by setting: (dose: 100.0 mg/kg/injection, schedule: Q04DX002 (ip), vehicle: Klucel (hydroxypropylcellulose) (HPC)) 94 % of control; (dose: 200.0 mg/kg/injection, schedule: Q04DX002 (ip), vehicle: Klucel (hydroxypropylcellulose) (HPC)) 94 % of control; (dose: 400.0 mg/kg/injection, schedule: Q04DX002 (ip), vehicle: Klucel (hydroxypropylcellulose) (HPC)) 94 % of control.
As to `CC(C)(C)C(=O)CC(=O)C(C)(C)C.CC(C)(C)C(=O)CC(=O)C(C)(C)C.CC(C)(C)C(=O)CC(=O)C(C)(C)C.[Er]`, the T/C reads like this: under setting [1], 100 % of control; under setting [2], 97 % of control; under setting [3], 94 % of control.
For the molecule `COC(=O)CCCCCCCCC(C)c1ccc(C(C)=O)cc1` (stereo not given), the T/C was 95 % of control (dose: 100.0 mg/kg/injection, schedule: Q01DX009 (ip), vehicle: saline with Tween-80); 99 % of control under setting [1]; 87 % of control (dose: 200.0 mg/kg/injection, schedule: Q01DX009 (ip), vehicle: saline with Tween-80); 95 % of control under setting [2]; 96 % of control (dose: 400.0 mg/kg/injection, schedule: Q01DX009 (ip), vehicle: saline with Tween-80); 89 % of control under setting [3].
Regarding `CC1CN=C(c2ccc(NC(=O)Nc3ccc(C(=O)Nc4ccc(C5=NCC(C)N5)cc4)cc3)cc2)N1` (stereo not given), the T/C (dose: 0.23 mg/kg/injection, schedule: Q01DX009 (ip), vehicle: saline) was 96 % of control; the T/C (dose: 0.94 mg/kg/injection, schedule: Q01DX009 (ip), vehicle: saline) was 96 % of control; the T/C (dose: 7.5 mg/kg/injection, schedule: Q01DX Z (ip), vehicle: saline) is 150 % of control; the T/C (dose: 15.0 mg/kg/injection, schedule: Q01DX Z (ip), vehicle: other) is 204 % of control; the T/C (dose: 15.0 mg/kg/injection, schedule: Q01DX Z (ip), vehicle: saline) is 277 % of control; the T/C (dose: 15.0 mg/kg/injection, schedule: Q01DX Z (oral), vehicle: saline) was 103 % of control. Further, the T/C reads like this: (dose: 30.0 mg/kg/injection, schedule: Q01DX Z (ip), vehicle: other) 115 % of control; (dose: 30.0 mg/kg/injection, schedule: Q01DX Z (oral), vehicle: saline) 103 % of control; (dose: 60.0 mg/kg/injection, schedule: Q01DX Z (oral), vehicle: saline) 103 % of control; (dose: 120.0 mg/kg/injection, schedule: Q01DX Z (oral), vehicle: saline) 102 % of control.
